Results taken from US11840531B2, “CDK8/19 inhibitors” (JOINT STOCK COMPANY “BIOCAD”, priority 2018, dated 2023).
Structures can show the parent of a compound that is named as a salt.

How the values were obtained:
[1] = Stability of the compounds in human blood plasma; format: in vitro ADME; conditions: pooled human blood plasma, 10 μM, 4 hours at 37° C.
Procedure: To assess the blood plasma stability of the compounds, we used pooled human blood plasma taken from ten healthy donors. The initial candidate solution (10 mM in DMSO) was diluted with pooled blood plasma to a concentration of 10 μm (test solution). The test solution was incubated in a dry block thermostat for 4 hours at 37° C. HPLC with Agilent 1200 liquid chromatography system (Agilent, USA) was employed to determine peak areas of the compounds in test samples, said peak areas corresponding to the initial test time (prior to incubation) and the final test time (after incubation in a dry block thermostat for 4 hours at 37° C.), proteins were preliminarily precipitated with acetonitrile. Chromatographic analysis was performed in a gradient elution regime with a flow rate of 1 mL/min Substance amount in % in a sample after thermostatting was determined.
The stability of the compounds was estimated. The compounds described herein show at least 90% chemical stability, i.e. they are chemically stable in human blood plasma (Table 2).

[2] = Permeability through Caco-2 cell monolayer; format: in vitro ADME; conditions: human; for Papp A→B at 2 h, 10 μM: Caco-2, A→B, pH 6.5/7.4, 2 hour incubation; for efflux ratio at 2 h, 10 μM: Caco-2, Papp B-A/Papp A-B
Procedure: Estimation of permeability through Caco-2 cell monolayer enables assessment of the ability of the substances to penetrate through biological membranes by means of both active and passive transport.
Intestinal epithelial cells Caco-2 were grown on filter inserts (pore size 0.4 jam, BD Falcon with High Density) for 21 days; monolayer integrity was then checked using Lucifer Yellow (Sigma-Aldrich, USA) according to the standard protocol. In A→B transfer (“intestinal lumen”-“blood stream” transfer), solutions of the test substances in buffer, pH 6.5 (HBSS, 10 mM HEPES, 15 mM glucose) at a concentration of 10 μM were added to the upper chamber; whereas the lower chamber was filled with buffer, pH 7.4 (HBSS, 10 mM HEPES, 15 mM Glucose, 1% BSA). In B→A transfer (“blood stream”-“intestinal lumen” transfer), the upper chamber was filled with buffer, pH 6.5, whereas the solutions of the test substances in buffer, pH 7.4, at a concentration of 10 μM were added to the lower chamber. A highly permeable substance propranolol was used as a control.
After 2 hour incubation at 37° C. under an atmosphere containing 5% CO2, the amounts of the test substances in the upper and lower chambers were measured by HPLC using an Agilent1200 HPLC system (Agilent, USA), proteins were preliminarily precipitated with acetonitrile. Chromatographic analysis was performed in a gradient elution regime with a flow rate of 1 mL/min. The peak areas corresponding to the compounds were detected on chromatograms. Based on the peak areas of a compound in the calibration standards, concentration of the compound in the initial solution and in the samples from upper chamber wells and lower chamber wells was measured.
Cellular permeability coefficient Papp was calculated by the formula: Papp=(Ca(t)*Va)/(Cd(0)*t*Area), where Papp is the effective permeability constant, m/s V is the volume of solution (0.8 ml in A→B test, 0.2 ml in B→A test), ml Area is the membrane surface area (0.33 cm^2), cm^2 t is the time of incubation (7200 sec), sec Cd(0) is the initial solution concentration, μM Ca(t) is the concentration of the solution after 2 hours (the concentration in the sample from the well of the lower chamber in A→B test; the concentration in the sample from the well of the top chamber in B→A test), μM
The value was calculated by the following formula: efflux=Papp B-A/Papp A-B, where Pape A-B-direct A→B test permeability value Papp B-A-reverse B→A test permeability value

[3] = biological target: CDK8/Cyclin C (Homo sapiens (Human), UniProt P49336); experiment: LanthaScreen binding to recombinant CDK8/Cyclin C; conditions: TR-FRET, Tracer 236 10 nM, CDK8/Cyclin C 5 nM
Procedure: Capability of compounds of the present invention to bind to CDK8 protein was detected using LanthaScreen (ThermoFisher) assay. We detected FRET signal proportional to the amount of CDK8-bound fluorescently-labeled ligand (Tracer 236) that competes with inhibitor for ATP binding site. We carried out the measurements in a 15 μl reaction volume using a 384-well plate (Corning, #CLS4513). Enzyme CDK8/Cyclin C (ThermoFisher, #PR7261B) was mixed with antibodies Anti-His-tag-Biotin (ThermoFisher, #PV6090), Streptavidin-Eu (ThermoFisher, #PV6025), the resulting mixture was added to plate wells (5 MKπ/well). Final concentrations of substances were as follows: CDK8/Cyclin C—5 nM, Streptavidin-Eu—3 nM, Anti-His-tag-Biotin—3 nM. Staurosporine (S4400, Sigma) was used as a reference inhibitor, and 0.1% solution of dimethyl sulphoxide (DMSO) in reaction buffer was used as a blank, the reaction buffer comprised 250 mM HEPES (pH 7.5), 50 mM MgCl2, 5 mM EGTA, and 0.05% Brij-35.
The inhibitors and controls in question were added to corresponding wells (5 μl/well). The plate was incubated at room temperature for 20 minutes. After incubating, 5 μl/well of tracer solution Alexa Fluor-647 (Kinase Tracer 236, ThermoFisher, #PV5592)) was added to the wells. Final concentration of tracer was 10 nM. Reaction buffer, instead of tracer solution, was used as a negative control. The plate was incubated for 40 minutes at 25° C., TR-FRET signal was then measured according to the manufacturer's guidelines on SPARK20 plate reader (Tecan, Switzerland), and the value was converted to the amount of kinase-bound tracer. IC50 values were calculated using SparkControl Magellan 1.2 software (Tecan, Switzerland) approximating experimental points by four-parameter logistic model with the optimization by Levenberg-Marquardt (Table 5).

[4] = tested on: MV4-11 cells; experiment: Antiproliferative activity, MV4-11 cells (AlamarBlue); format: cell-based; conditions: Homo sapiens, 120 h incubation, read-out: MV-4-11 IC50
Procedure: (§1) Antiproliferative activity of CDK8 inhibitors according to the present invention was measured in a cell-based test on continuous cell cultures MV4-11 (biphenotypic myelomonocytic leukemia, ATCC® CRL-9591™), KG-1 (acute myeloid leukemia, ATCC® CCL-246™) using a vital stain AlamarBlue (ThermoFisher, #DAL1100). The cells were grown in RPMI-1640 (PanEco, #C330p) medium with addition of 10% FBS (Gibco, #16140-071); washed and resuspended in culture medium with 10% FBS (Gibco, #16140-071) in 96-well culture plates (Corning, #3599) with ≈10×10^3 cells in […] of medium per well. The compounds in question were dissolved in DMSO and diluted with a medium with 10% FBS (Gibco, #16140-071) to a final concentration ranging from 0 to 100 μM. […] of diluted compounds were then added to each well (final DMSO concentration was less than 1%) and incubated under 5% CO2 atmosphere at 37° C. for 120 h. After incubating, 15 μL/well of AlamarBlue (ThermoFisher, #DAL1100) reagent was added, contents of plates were mixed in an orbital shaker (Biosan, Latvia) and further incubated for 3-5 h at 37° C. under 5% CO2 atmosphere. Number of living cells was estimated using a microplate spectrophotometer (Tecan Infinite M200Pro, Switzerland) measuring fluorescent signal at the excitation wavelength (λEx) of 540 nm and emission wavelength (λEm) of 590 nm.
(§2) IC50 values were calculated using Magellan 7.2 software (Tecan, Switzerland) approximating experimental points by four-parameter logistic model with the optimization by Levenberg-Marquardt (Table 6).

[5] = tested on: KG-1 cells; experiment: Antiproliferative activity, KG-1 cells (AlamarBlue); format: cell-based; conditions: 120 h incubation
Procedure: as §1, §2

[6] = General cytotoxicity on HepG2 cells; format: cell-based; conditions: human, 72 h incubation
Procedure: The CC50 values were determined in the test for General cytotoxicity On HepG2 cells (hepatocellular carcinoma, ATCC® HB-8065™). Cells per well were seeded in 96-well plates (Corning, #3599) at a concentration ≈20×10^3 cells in 100 μL of medium and incubated for 72 h with added compounds within the range of concentrations of 200 to 0.78 μM. Cell viability was assessed using the above method.

Chain of CDK8/Cyclin C (P49336 whole entry): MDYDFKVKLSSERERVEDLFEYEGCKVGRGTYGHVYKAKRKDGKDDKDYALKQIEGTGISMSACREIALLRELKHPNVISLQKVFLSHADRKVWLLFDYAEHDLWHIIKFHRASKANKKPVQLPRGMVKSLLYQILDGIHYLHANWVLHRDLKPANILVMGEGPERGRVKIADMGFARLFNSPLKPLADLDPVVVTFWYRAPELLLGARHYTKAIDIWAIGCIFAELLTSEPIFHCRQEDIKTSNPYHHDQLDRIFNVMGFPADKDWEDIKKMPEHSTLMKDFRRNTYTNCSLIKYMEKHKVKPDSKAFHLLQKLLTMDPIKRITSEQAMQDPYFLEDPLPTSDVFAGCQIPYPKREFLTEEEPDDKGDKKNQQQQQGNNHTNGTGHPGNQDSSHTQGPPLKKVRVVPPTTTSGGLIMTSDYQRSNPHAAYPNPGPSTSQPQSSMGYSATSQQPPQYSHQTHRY
Chain of CDK8/Cyclin C (P24863 whole entry partner): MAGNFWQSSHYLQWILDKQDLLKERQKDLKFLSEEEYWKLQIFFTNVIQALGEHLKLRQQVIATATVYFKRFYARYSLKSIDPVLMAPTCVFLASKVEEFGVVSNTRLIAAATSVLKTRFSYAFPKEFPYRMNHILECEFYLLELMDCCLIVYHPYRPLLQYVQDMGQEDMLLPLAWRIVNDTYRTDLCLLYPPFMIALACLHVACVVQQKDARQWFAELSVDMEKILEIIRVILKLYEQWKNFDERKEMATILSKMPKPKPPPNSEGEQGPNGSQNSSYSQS

Row | Chemical stability in human blood plasma 4 h, % [1] | Papp A→B at 2 h, 10 μM [2] | efflux ratio at 2 h, 10 μM [2] | IC50 [3] | IC50 [4] | SMILES | IC50 ([5]; Homo sapiens, KG-1, 120 h) | CC50 at 72 h [6] | IC50 ([5]; dihydrochloride)
1 | 100.0% | 26.2 ×10⁻⁶ cm/s | 1.88 | 1.44 nM | 16.9 nM | COCCn1cc(-c2ccc(-c3cnc(N)c4ncc(C(=O)N5CCN(C)CC5)cc34)cc2)cn1 [Compound 3.51, (8-amino-5-(4-(1-(2-methoxyethyl)-1H-pyrazole-4-yl)phenyl)-1,7-naphthyridin-3-yl)(4-methylpiperazine-1-yl)methanone] | 12.9 nM | > 100000 nM | –
2 | – | – | – | 1.64 nM | – | CN1CCN(C(=O)c2cnc3c(N)ncc(-c4ccc(-c5cnn(CC(=O)N(C)C)c5)cc4)c3c2)CC1 [Compound 3.49 × 2HCl, 2-(4-(4-(8-amino-3-(4-methylpiperazine-1-carbonyl)-1,7-naphthyridine-5-yl)phenyl)-1H-pyrazole-1-yl)-N,N-dimethylacetamide dihydrochloride] | – | – | 16 nM
3 | – | – | – | 2.27 nM | – | COCCN(C)C(=O)c1cnc2c(N)ncc(-c3ccc(-c4cnn(CCOC)c4)cc3)c2c1 [Compound 3.57, 8-amino-N-(2-methoxyethyl)-5-(4-(1-(2-methoxyethyl)-1H-pyrazole-4-yl)phenyl)-N-methyl-1,7-naphthyridine-3-carboxamide] | 17.1 nM | ~90000 nM | –
4 | – | – | – | 2.03 nM | 3.8 nM | CN1CCN(C(=O)Cn2cc(-c3ccc(-c4cnc(N)c5ncc(C(=O)N6CCN(C)CC6)cc45)cc3)cn2)CC1 [Compound 3.50, 2-(4-(4-(8-amino-3-(4-methylpiperazine-1-carbonyl)-1,7-naphthyridine-5-yl)phenyl)-1H-pyrazole-1-yl)-1-(4-methylpiperazine-1yl)ethan-1-one] | 26.6 nM | > 100000 nM | –
5 | 94.6% | 42.8 ×10⁻⁶ cm/s | 0.55 | 1.27 nM | 15.8 nM | COCCn1cc(-c2ccc(-c3cnc(N)c4ncc(C(=O)N5CCC5)cc34)cc2)cn1 [Compound 3.54, (8-amino-5-(4-(1-(2-methoxyethyl)-1H-pyrazole-4-yl)phenyl)-1,7-naphthyridin-3-yl) (azetidin-1-yl)methanone] | 12.2 nM | ~90000 nM | –
6 | – | – | – | 1.07 nM | – | COCCN(C)C(=O)c1cnc2c(N)ncc(-c3ccc(-c4cnn(CC(=O)N5CCN(C)CC5)c4)cc3)c2c1 [Compound 3.56, 8-amino-N-(2-methoxyethyl)-N-methyl-5-(4-(1-(2-(4-methylpiperazine-1-yl)-2-oxoethyl)-1H-pyrazole-4-yl)phenyl)-1,7-naphthyridine-3-carboxamide] | 13.8 nM | > 100000 nM | –
7 | – | – | – | 1.24 nM | – | COCCN(C)C(=O)c1cnc2c(N)ncc(-c3ccc(-c4cnn(CC(=O)N(C)C)c4)cc3)c2c1 [Compound 3.55] | 6.5 nM | > 100000 nM | –
8 | 100.0% | 15.7 ×10⁻⁶ cm/s | 1.89 | 0.88 nM | 0.5 nM | CN(C)C(=O)Cn1cc(-c2ccc(-c3cnc(N)c4ncc(C(=O)NCC5CC5)cc34)cc2)cn1 [Compound 3.43, 8-Amino-N-(cyclopropylmethyl)-5-(4-(1-(2-(dimethylamino)-2-oxoethyl)-1H-pyrazole-4-yl)phenyl)-1,7-naphthyridine-3-carboxamide] | 0.2 nM | 68100 nM | –
9 | 100.0% | – | – | 1.4 nM | 0.7 nM | CN1CCN(C(=O)Cn2cc(-c3ccc(-c4cnc(N)c5ncc(C(=O)NCC6CC6)cc45)cc3)cn2)CC1 [Compound 3.44, 8-amino-N-(cyclopropylmethyl)-5-(4-(1-(2-(4-methylpiperazin-1-yl)-2-oxoethyl)-1H-pyrazole-4-yl)phenyl)-1,7-naphthyridine-3-carboxamide] | 0.7 nM | 65300 nM | –
